Reference: patent US20080280879A1, “SUBSTITUTED HETEROCYCLIC DERIVATIVES AND THEIR PHARMACEUTICAL USE AND COMPOSITIONS” (priority 2007, published 2008)
In brackets after ≈: the same amount, converted by molar mass.

How the values were obtained:
Type in all cases: cell-based, Staphylococcus aureus
Staph aureus 1095 MRSA = assay: MIC, microtiter broth dilution (CLSI M7-A7), Assay 1, Table 12 column A, no serum; settings: Assay 1, no serum; for MIC: Staphylococcus aureus, MRSA
Description: (§1) The assays described herein include a panel of bacterial isolates of Staphylococcus aureus. Assay 1 comprises the strains noted in Columns A through E, and Assay 2 comprises the strains noted in Columns F through H. The assays are performed in microtiter trays according to Methods for Dilution Antimicrobial Susceptibility Tests for Bacteria that Grow Aerobically; Approved Standard-7th edition (M7-A7) and interpreted according to the Performance Standards for Antimicrobial Susceptibility Testing; 16th Informational Supplement (M100-S16) published by Clinical Laboratory Standards Institute (CLSI). The antibacterial activity is presented in the form of a minimum inhibitory concentration (MIC) value in μg/ml format. The MIC value represents the lowest concentration of drug measured which prevented macroscopically visible growth under the conditions and specific doses tested. The compounds were initially dissolved in DMSO as 30 mM stocks and diluted accordingly to adjust to a concentration of 10 mg/ml or the compounds were dissolved in DMSO at a concentration of 10 mg/ml. For assessment of activity in the presence of human serum, S. aureus 1146 and S. aureus 1031 were inoculated into Mueller-Hinton Broth with 50% pooled inactivated human serum. In some cases, compounds were tested more than once in a particular assay. Where noted, the MIC value shown in Table 12 represents the geometric mean of the data from multiple runs.
(§2) It should be understood that the data in columns A-H represents MIC data in μg/ml and the notation “<=” means ‘less than or equal to’.

Staph aureus 1146 [1] = assay: MIC, microtiter broth dilution (CLSI M7-A7), Assay 1, Table 12 column B, no serum; settings: for MIC: Staphylococcus aureus, 1146, Staph aureus 1146, Assay 1, no serum
Description: as §1, §2

Staph aureus 2812 = assay: MIC, microtiter broth dilution (CLSI M7-A7), Assay 1, Table 12 column E, no serum; settings: for MIC: Staphylococcus aureus, 2812, Staph aureus 2812, Assay 1, no serum
Description: as §1, §2

Staph aureus 2811 = assay: MIC, microtiter broth dilution (CLSI M7-A7), Assay 1, Table 12 column D, no serum; settings: for MIC: Staphylococcus aureus, 2811, Staph aureus 2811, Assay 1, no serum
Description: as §1, §2

Staph aureus 1146 [2] = assay: MIC in Mueller-Hinton Broth with 50% pooled inactivated human serum, Assay 1, Table 12; settings: for MIC, column C: Staph aureus 1146, Assay 1, 50% human serum; for MIC: Staphylococcus aureus, 1146, Staph aureus 1146, Assay 1, 50% human serum, read-out: MIC, column C
Description: as §1, §2

SMILES | MIC, column A (Staph aureus 1095 MRSA) [mg/L] | MIC, column B (Staph aureus 1146 [1]; Staph aureus 1146, Assay 1, no serum) [mg/L] | MIC, column E (Staph aureus 2812; Staph aureus 2812, Assay 1, no serum) [mg/L] | MIC, column D (Staph aureus 2811; Staph aureus 2811, Assay 1, no serum) [mg/L] | MIC, column C (Staph aureus 1146 [2]) [mg/L] | MIC (Staph aureus 1095 MRSA) [mg/L] | MIC (Staph aureus 1146 [1]) [mg/L] | MIC (Staph aureus 2812) [mg/L] | MIC (Staph aureus 2811) [mg/L] | MIC (Staph aureus 1146 [2]) [mg/L]
COc1ccc2nccc(C(CC[C@@H]3CCN(C4CC(c5ccccc5)C4)C[C@@H]3C(=O)O)N3CCOCC3)c2c1 (stereo partly shown) [Example 139] | 2 (≈ 3.68 µM) | 2 (≈ 3.68 µM) | 2 (≈ 3.68 µM) | 4 (≈ 7.36 µM) | 16 (≈ 29.4 µM) | – | – | – | – | –
COc1ccc2nccc(C(O)CC[C@@H]3CCN(C4CC(c5nc(C6CC6)no5)C4)C[C@@H]3C(=O)O)c2c1 (stereo partly drawn) [Example 165, (3R,4R)-1-[3-(3-cyclopropyl-1,2,4-oxadiazol-5-yl)cyclobutyl]-4-[3-hydroxy-3-(6-methoxyquinolin-4-yl)propyl]piperidine-3-carboxylic acid] | – | – | – | – | – | > 64 | 32 (≈ 63.2 µM) | 64 (≈ 126 µM) | 32 (≈ 63.2 µM) | > 64
COc1ccc2nccc(C(O)CC[C@@H]3CCN(C4CC(c5c(F)cccc5F)C4)C[C@@H]3C(=O)O)c2c1 (single isomer, unassigned) [Example 27] | – | – | – | – | – | ≤ 0.0625 | ≤ 0.125 | ≤ 0.0625 | ≤ 0.0625 | 0.353 (≈ 0.692 µM)
COc1ccc2ncc(Cl)c(C(O)CC[C@@H]3CCN(C4CC(c5c(F)cccc5F)C4)C[C@@H]3C(=O)O)c2c1 (stereo partly drawn) [Example 188, (3R,4R)-4-[3-(3-chloro-6-methoxyquinolin-4-yl)-3-hydroxypropyl]-1-[3-(2,6-difluorophenyl)cyclobutyl]piperidine-3-carboxylic acid] | – | – | – | – | 0.500 (≈ 0.917 µM) | < 0.0625 | < 0.0625 | < 0.0625 | < 0.0625 | –
COc1ccc2nccc(C(O)CC[C@@H]3CCN(C4CC(c5cc(C)on5)C4)C[C@@H]3C(=O)O)c2c1 (stereo partly drawn) [Example 171, (3R,4R)-4-[3-Hydroxy-3-(6-methoxy-quinolin-4-yl)-propyl}-1-[3-(5-methyl-isoxazol-3-yl)-cyclobutyl]-piperidine-3-carboxylic acid] | – | – | – | – | – | 16 (≈ 33.4 µM) | 8 (≈ 16.7 µM) | 8 (≈ 16.7 µM) | 8 (≈ 16.7 µM) | 16 (≈ 33.4 µM)
COc1ccc2nccc(C(O)CC[C@@H]3CCN(C4CCC(c5ccc(Cl)cc5)C4)C[C@@H]3C(=O)O)c2c1 (stereo partly drawn) [Example 97, (3R,4R)-1-[3-(4-chlorophenyl)cyclopentyl]-4-[3-hydroxy-3-(6-methoxyquinolin-4-yl)propyl]piperidine-3-carboxylic acid] | – | – | – | – | – | 32 (≈ 61.2 µM) | 2 (≈ 3.82 µM) | 8 (≈ 15.3 µM) | 8 (≈ 15.3 µM) | > 64
COc1ccc2nccc([C@H](O)CC[C@@H]3CCN(C4CC(c5ccccc5F)C4)C[C@@H]3C(=O)O)c2c1 (stereo partly drawn) [Example 90, (3R,4R)-1-[3-(2-fluorophenyl)cyclobutyl]-4-[(3R)-3-hydroxy-3-(6-methoxyquinolin-4-yl)propyl]piperidine-3-carboxylic acid] | – | – | – | – | – | < 0.0625 | < 0.0625 | < 0.0625 | < 0.0625 | 1 (≈ 2.03 µM)
COc1ccc2ncnc(CCCC3(C(=O)O)CCN(C4CC(c5ccccc5)C4)CC3)c2c1 (stereo not shown) [Example 111, 4-[3-(6-methoxyquinazolin-4-yl)propyl]-1-(3-phenylcyclobutyl)piperidine-4-carboxylic acid] | – | – | – | – | – | 4 (≈ 8.7 µM) | 2 (≈ 4.35 µM) | 1 (≈ 2.18 µM) | 1 (≈ 2.18 µM) | > 64
CCCc1noc(C2CC(N3CC[C@@H](CCC(O)c4ccnc5ccc(OC)cc45)[C@@H](C(=O)O)C3)C2)n1 (stereo partly drawn) [Example 167, (3R,4R)-4-[3-hydroxy-3-(6-methoxyquinolin-4-yl)propyl]-1-[3-(3-propyl-1,2,4-oxadiazol-5-yl)cyclobutyl]piperidine-3-carboxylic acid] | – | – | – | – | – | > 64 | > 64 | > 64 | > 64 | > 64
COc1ccc2nccc(C(O)CC[C@@H]3CCN(C4CC(c5ccccc5)C4C)C[C@@H]3C(=O)O)c2c1 (stereo partly drawn) [Example 43, (3R,4R)-4-[3-hydroxy-3-(6-methoxyquinolin-4-yl)propyl]-1-(2-methyl-3-phenylcyclobutyl)piperidine-3-carboxylic acid] | – | – | – | – | – | 0.25 (≈ 0.512 µM) | ≤ 0.0625 | ≤ 0.0625 | ≤ 0.0625 | 0.5 (≈ 1.02 µM)
COc1ccc2nccc(C(O)CC[C@@H]3CCN(C4CC(c5ccc(C(F)(F)F)cc5)C4)C[C@@H]3C(=O)O)c2c1 (stereo partly drawn) [Example 30, (3R,4R)-4-[3-hydroxy-3-(6-methoxyquinolin-4-yl)propyl]-1-{3-[4-(trifluoromethyl)phenyl]cyclobutyl} piperidine-3-carboxylic acid] | – | – | – | – | – | 4 (≈ 7.37 µM) | 8 (≈ 14.7 µM) | 8 (≈ 14.7 µM) | 4 (≈ 7.37 µM) | > 64
COc1ccc2ncc(F)c([C@@H](O)CC[C@@H]3CCN(C4CC(c5cc(F)cc(F)c5)C4)C[C@@H]3C(=O)O)c2c1 (stereo partly drawn) [Example 221, (3R,4R)-1-[3-(3,5-difluorophenyl)cyclobutyl]-4-[(3S)-3-(3-fluoro-6-methoxyquinolin-4-yl)-3-hydroxypropyl] piperidine-3-carboxylic acid] | – | – | – | – | – | 1 (≈ 1.89 µM) | 0.25 (≈ 0.473 µM) | 0.25 (≈ 0.473 µM) | 0.25 (≈ 0.473 µM) | 4 (≈ 7.57 µM)
COc1ccc2nccc([C@@H](O)CC[C@@H]3CCN(C4CC(c5ccccc5F)C4)C[C@@H]3C(=O)O)c2c1 (stereo partly drawn) [Example 89, (3R,4R)-1-[3-(2-fluorophenyl)cyclobutyl]-4-[(3S)-3-hydroxy-3-(6-methoxyquinolin-4-yl)propyl]piperidine-3-carboxylic acid] | – | – | – | – | – | < 0.0625 | < 0.0625 | < 0.0625 | < 0.0625 | 0.5 (≈ 1.02 µM)
COc1ccc2ncc(F)c(CCCC3(C(=O)O)CCN(C4CC(c5nc(C)no5)C4)CC3)c2c1 (stereo not shown) [Example 98, 4-[3-(3-fluoro-6-methoxyquinolin-4-yl)propyl]-1-[3-(3-methyl-1,2,4-oxadiazol-5-yl)cyclobutyl]piperidine-4-carboxylic acid] | – | – | – | – | – | 4 (≈ 8.29 µM) | 2 (≈ 4.14 µM) | 4 (≈ 8.29 µM) | 2 (≈ 4.14 µM) | 64 (≈ 133 µM)
CCc1noc(C2CC(N3CC[C@@H](CCC(O)c4ccnc5ccc(OC)cc45)[C@@H](C(=O)O)C3)C2)n1 (stereo partly drawn) [Example 162, (3R,4R)-1-[3-(3-ethyl-1,2,4-oxadiazol-5-yl)cyclobutyl]-4-[3-hydroxy-3-(6-methoxyquinolin-4-yl)propyl]piperidine-3-carboxylic acid] | – | – | – | – | – | 64 (≈ 129 µM) | 64 (≈ 129 µM) | 64 (≈ 129 µM) | 32 (≈ 64.7 µM) | > 64
COc1ccc2ncc(F)c(CCCC3(C(=O)O)CCN(C4CC(c5c(F)cccc5F)C4)C3)c2c1 (stereo not shown) [Example 174, 1-[3-(2,6-difluorophenyl)cyclobutyl]-3-[3-(3-fluoro-6-methoxyquinolin-4-yl)propyl]pyrrolidine-3-carboxylic acid] | – | – | – | – | 4.00 (≈ 8.02 µM) | < 0.0625 | < 0.0625 | < 0.0625 | < 0.0625 | –
COc1ccc2ncc(Cl)c(CCCC3(C(=O)O)CCN(C4CC(c5ccccc5)C4)C3)c2c1 (stereo not shown) [Example 86, 3-[3-(3-chloro-6-methoxyquinolin-4-yl)propyl]-1-(3-phenylcyclobutyl)pyrrolidine-3-carboxylic acid] | – | – | – | – | – | ≤ 0.0625 | ≤ 0.0625 | ≤ 0.0625 | ≤ 0.0625 | 8 (≈ 16.7 µM)
COc1ccc2nccc(C(O)CC[C@@H]3CCN(C4CC(c5c(C)cccc5C)C4)C[C@@H]3C(=O)O)c2c1 (stereo partly drawn) [Example 35, (3R,4R)-1-[3-(2,6-dimethylphenyl)cyclobutyl]-4-[3-hydroxy-3-(6-methoxyquinolin-4-yl)propyl] piperidine-3-carboxylic acid] | – | – | – | – | – | 4 (≈ 7.96 µM) | 1 (≈ 1.99 µM) | 1 (≈ 1.99 µM) | 1 (≈ 1.99 µM) | 64 (≈ 127 µM)
COc1ccc2ncc(Cl)c(CCCC3(C(=O)O)CCN(C[C@@H]4C[C@H]4c4cc(F)ccc4F)C3)c2c1 (stereo partly drawn) [Example 198, 3-[3-(3-chloro-6-methoxyquinolin-4-yl)propyl]-1-{[(1R,2R)-2-(2,5-difluorophenyl)cyclopropyl]methyl} pyrrolidine-3-carboxylic acid] | – | – | – | – | – | 0.125 (≈ 0.243 µM) | < 0.0625 | < 0.0625 | < 0.0625 | > 64
O=C(O)[C@H]1CN(C2CC(c3ccccc3)C2)CC[C@H]1CCC(O)c1ccnc2ccc(O)cc12 (stereo partly drawn) [Example 142, (3R,4R)-4-[3-hydroxy-3-(6-hydroxyquinolin-4-yl)propyl]-1-(3-phenylcyclobutyl)piperidine-3-carboxylic acid] | – | – | – | – | – | 32 (≈ 69.5 µM) | 16 (≈ 34.7 µM) | 16 (≈ 34.7 µM) | 8 (≈ 17.4 µM) | > 64
